Patent US6949571B2, “1,2-dihydropyridine compounds, process for preparation of the same and use thereof” (Eisai Co., Ltd., priority 2000, dated 2005)
Where two headings read alike, the source gives them in different places.

Columns and labels:
[1] = test system: convulsions induced by AMPA; assay: Anticonvulsant action induced by AMPA; type: in vivo, mice of ddy strain; conditions: 25 mg/kg orally, male ddy mice; AMPA continuously injected into lateral ventricle 30 minutes or 1 hour after
Protocol: A test compound was suspended in a 0.5% methyl cellulose solution or in sesame oil and was orally administered (25 mg/kg) to male mice of ddy strain. After 30 minutes or 1 hour from the oral administration, AMPA was continuously injected ([…]/5 μl/minute/mouse) into lateral ventricle to induce the convulsions. The effect was judged by a time-extending action until the convulsion takes place by a continuous injection of AMPA.

[2] = test system: experimental autoimmune encephalomyelitis; assay: Experimental autoimmune encephalomyelitis model; type: in vivo; conditions: p.o. 5, 10 and 20 mg/kg, 10-16 days post immunisation, female Lewis rats, versus vehicle
Protocol: Female Lewis rats (205±10 g) obtained from Charles River, Kent UK, were housed in pairs under environmentally controlled conditions (6:00 a.m.-6:00 p.m. light/dark cycle; 22-24° C.; 45-55% humidity) and allowed free access to food and water. Experimental groups consisted of 9-12 animals. Rats were immunised in each hind foot with 20-50 μl of inoculum containing 50 μg guinea pig myelin basic protein (MBP; final concentration 2 mg/ml), emulsified in Freund's complete adjuvant (CFA; Sigma, UK) containing Mycobacterium tuberculosis H37Ra (final concentration 5.5 mg/ml; Difco Laboratories, UK). Animals were weighed and monitored daily and clinical disease scored as (O) no clinical signs; (1) flaccid tail and weight loss; (2) hind limb hypotonia with further weight loss; (3) complete hind limb paralysis; (4) paraplegia and (5) death. […] During the period of compound administration (10-16 days post immunisation; dpi) animals were scored 15 h after injection of vehicle or compound to avoid any acute effect of treatment on disease score. Compounds were dissolved/suspended in 0.5% methyl cellulose using a hand held Polytron homogeniser (PT1200; 2 min). Rats were dosed p.o. with either methyl cellulose vehicle (2.5 ml/kg) or compound at 5, 10 and 20 mg/kg. Results: the compound of the invention is improved in view of experimental autoimmune encephalomyelitis.

[3] = Table 1, primary culture of rat embryo cerebral cortex nerve cells, 2 μM AMPA, 1 μM MK-801
[4] = Table 2, suppression of AMPA-induced calcium influx into nerve cells
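For IC50 in this document: primary rat embryonic cortical neurons grown on an astrocyte layer in 96-well plates, used after at least 8 to 10 days in culture, Fura2-AM fluorescence ratio at 340/380 nm excitation.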

SMILES | anticonvulsant action (time-extending action until the convulsion takes place) [1] | IC50 (AMPA receptor; [3]) [µM] | effect on experimental autoimmune encephalomyelitis (clinical disease score) [2] | IC50 (AMPA receptor; [4]) [µM]
O=c1c(-c2cccnc2Cl)cc(-c2ccccn2)cn1-c1ccccc1 [Example 4, 3-(2-Chloro-3-pyridyl)-5-(2-pyridyl)-1-phenyl-1,2-dihydropyridin-2-one] | significant anticonvulsant action | 0.1 |  | 
N#Cc1ccccc1-c1cc(-c2ccccn2)cn(-c2ccccc2)c1=O [Example 7, 3-(2-Cyanophenyl)-5-(2-pyridyl)-1-phenyl-1,2-dihydropyridin-2-one] | significant anticonvulsant action | 0.1 | superior effect to the vehicle-administered group | 
N#Cc1ccccc1-c1cc(-c2ccccn2)cn(-c2cccc(N)c2)c1=O [Example 9, 3-(2-Cyanophenyl)-5-(2-pyridyl)-1-(3-aminophenyl)-1,2-dihydropyridin-2-one] | significant anticonvulsant action | 0.03 |  | 
CN(C)c1cccc(-n2cc(-c3ccccn3)cc(-c3ccccc3C#N)c2=O)c1 [Example 12, 3-(2-Cyanophenyl)-5-(2-pyridyl)-1-(3-dimethylaminophenyl)-1,2-dihydropyridin-2-one] | significant anticonvulsant action | 0.1 |  | 
N#Cc1ncccc1-c1cc(-c2ccccn2)cn(-c2ccccc2)c1=O [Example 16, 3-(2-Cyano-3-pyridyl)-5-(2-pyridyl)-1-phenyl-1,2-dihydropyridin-2-one] | significant anticonvulsant action | 0.1 |  | 
N#Cc1ccccc1-c1cc(-c2ccccn2)cn(-c2cccnc2)c1=O [Example 32, 3-(2-Cyanophenyl)-5-(2-pyridyl)-1-(3-pyridyl)-1,2-dihydropyridin-2-one] | significant anticonvulsant action | 0.1 | superior effect to the vehicle-administered group | 
N#Cc1ccccc1-c1cc(-c2ccccc2)cn(-c2ccccc2)c1=O [Example 41, 3-(2-Cyanophenyl)-1,5-diphenyl-1,2-dihydropyridin-2-one] | significant anticonvulsant action | 0.08 |  | 
N#Cc1ccccc1-c1cc(-c2ccccc2)cn(-c2cccnc2)c1=O [Example 47, 3-(2-Cyanophenyl)-5-phenyl-1-(3-pyridyl)-1,2-dihydropyridin-2-one] | significant anticonvulsant action | 0.6 |  | 
O=c1c(-c2ccccc2Cl)cc(-c2ccccn2)cn1-c1ccccc1 [Example 57, 3-(2-Chlorophenyl)-5-(2-pyridyl)-1-phenyl-1,2-dihydropyridin-2-one] | significant anticonvulsant action | 0.2 |  | 
O=c1c(-c2ccccc2)cc(-c2ccccn2)cn1-c1ccccc1 [Example 61, 3-Phenyl-5-(2-pyridyl)-1-phenyl-1,2-dihydropyridin-2-one] | significant anticonvulsant action | 0.2 |  | 
O=c1c(-c2cccnc2F)cc(-c2ccccn2)cn1-c1ccccc1 [Example 76, 3-(2-Fluoro-3-pyridyl)-5-(2-pyridyl)-1-phenyl-1,2-dihydropyridin-2-one] | significant anticonvulsant action | 0.1 | superior effect to the vehicle-administered group | 
N#Cc1cccc(-c2cc(-c3ccccn3)cn(-c3ccccc3)c2=O)n1 [Example 78, 3-(6-Cyano-2-pyridyl)-5-(2-pyridyl)-1-phenyl-1,2-dihydropyridin-2-one] | significant anticonvulsant action | 1.4 |  | 
N#Cc1ccccc1-c1cc(-c2ccccn2)cn(-c2ccc(F)cc2)c1=O [Example 91, 3-(2-Cyanophenyl)-5-(2-pyridyl)-1-(4-fluorophenyl)-1,2-dihydropyridin-2-one] | significant anticonvulsant action | 0.05 |  | 
COc1ccccc1-n1cc(-c2ccccn2)cc(-c2ccccc2C#N)c1=O [Example 126, 3-(2-Cyanophenyl)-5-(2-pyridyl)-1-(2-methoxyphenyl)-1,2-dihydropyridin-2-one] | significant anticonvulsant action | 0.3 |  | 
O=c1c(-c2ccccc2Cl)cc(-c2ccccn2)cn1-c1cccnc1 [Example 128, 3-(2-Chlorophenyl)-5-(2-pyridyl)-1-(3-pyridyl)-1,2-dihydropyridin-2-one] | significant anticonvulsant action | 0.07 |  | 
N#Cc1sccc1-c1cc(-c2ccccn2)cn(-c2cccnc2)c1=O [Example 137, 3-(2-Cyanothiophen-3-yl)-5-(2-pyridyl)-1-(3-pyridyl)-1,2-dihydropyridin-2-one] | significant anticonvulsant action |  |  | 0.05
O=c1c(-c2cccnc2F)cc(-c2ccccn2)cn1-c1cccnc1 [Example 139, 3-(2-Fluoro-3-pyridyl)-5-(2-pyridyl)-1-(3-pyridyl)-1,2-dihydropyridin-2-one] | significant anticonvulsant action |  | superior effect to the vehicle-administered group | 0.3
N#Cc1ccccc1-c1cc(-c2ncccn2)cn(-c2ccccc2)c1=O [Example 164, 3-(2-Cyanophenyl)-1-phenyl-5-(2-pyrimidinyl)-1,2-dihydropyridin-2-one] | significant anticonvulsant action |  | superior effect to the vehicle-administered group | 0.08
N#Cc1ccccc1-c1cc(-c2cnccn2)cn(-c2ccccc2)c1=O [Example 199, 3-(2-Cyanophenyl)-1-phenyl-5-(2-pyrazyl)-1,2-dihydropyridin-2-one] | significant anticonvulsant action |  |  | 0.7
N#Cc1ccccc1-c1cc(-c2ncccn2)cn(-c2cccnc2)c1=O [Example 261, 3-(2-Cyanophenyl)-1-(3-pyridyl)-5-(2-pyrimidinyl)-1,2-dihydropyridin-2-one] | significant anticonvulsant action |  | superior effect to the vehicle-administered group | 0.08
O=c1c(-c2cccnc2F)cc(-c2ncccn2)cn1-c1ccccc1 [Example 262, 3-(2-Fuluoropyridin-3-yl)-1-phenyl-5-(2-pyrimidinyl)-1,2-dihydropyridin-2-one] | significant anticonvulsant action |  | superior effect to the vehicle-administered group | 0.3
N#Cc1ncccc1-c1cc(-c2ncccn2)cn(-c2ccccc2)c1=O [Example 264, 3-(2-Cyanopyridin-3-yl)-1-phenyl-5-(2-pyrimidinyl)-1,2-dihydropyridin-2-one] | significant anticonvulsant action |  | superior effect to the vehicle-administered group | 0.05
O=c1c(-c2ccccc2[N+](=O)[O-])cc(-c2ccccn2)cn1-c1ccccc1 [Example 270, 3-(2-Nitrophenyl)-1-phenyl-5-(2-pyridyl)-1,2-dihydropyridin-2-one] | significant anticonvulsant action |  |  | 0.14
N#Cc1ccccc1-c1cc(-c2cccc(N)n2)cn(-c2ccccc2)c1=O [Example 298, 5-(2-Aminopyridin-6-yl)-3-(2-cyanophenyl)-1-phenyl-1,2-dihydropyridin-2-one] | significant anticonvulsant action |  |  | 0.3
